Data on 11 compounds can be found in US6358492B1, “Dopamine transporter imaging ligand” (Research Triangle Institute, priority 1997, dated 2002).

Structures can show the parent of a compound that is named as a salt. Where two headings read alike, the source gives them in different places.

For data set [1], the target named is T1, dopamine transporter (UniProt P23977).
T1 construct: other: 0.5 nM [3H]WIN 35,428; mean ± standard error where given
It counts as binding. The conditions noted are these: read-out: IC50 DA [3H]WIN 35,428; 0.5 nM [3H]WIN 35,428; mean ± standard error where given.

Data set [2] has as its target norepinephrine transporter (UniProt Q9WTR4). Nature of the data set: Inhibition of 0.5 nM [3H]nisoxetine binding to the norepinephrine transporter. To be noted: read-out: IC50 NE [3H]Nisoxetine; 0.5 nM [3H]nisoxetine; mean ± standard error where given.
The target of data set [3] is dopamine transporter (Mus musculus, UniProt Q61327). Nature of the data set: In vivo binding / regional brain distribution of radiolabeled ligand after i.v. injection in mice. How it is done: Male CD mice weighting 25-35 g received 1 μCi [^3H]RTI-352 ([…], diluted in saline containing 0.5% methanol) by intravenous injection. The animals were killed at different times, and [^3H]RTI-352 concentrations in different brain regions determined as previously described (Scheffel et al., 1989; Cline et al., 1992). To evaluate the selectivity of [^3H]RTI-352 in vivo binding, blocking doses (5 mg/kg, dissolved in 0.1 ml saline) of GBR 12,909 (DAT blocker), desipramine (NET blocker), or paroxetine (5-HTT blocker) were injected intravenously 5 minutes before [^3H]RTI-352 tracer injection. The animals were killed 30 minutes later and [^3H]RTI-352 concentrations determined in the various brain tissues.
The percent dose per gram tissue peaked rapidly in all regions of the brain and was maintained for a slightly longer time in the striatum compared to other tissues that lack DAT. The tissue to cerebellar ratios reflected this fact in that striatal to cerebellar ratios were relatively high at early times but low at later times (FIG. 1).

For data set [4], the target named is T1, dopamine transporter. To be noted: read-out: IC50 DA [3H]WIN 35,428; 0.5 nM [3H]WIN 35,428; values taken from literature (footnotes c-h); cited from earlier work.
Data set [5] deals with norepinephrine transporter (UniProt Q9WTR4). To be noted: read-out: IC50 NE [3H]Nisoxetine; 0.5 nM [3H]nisoxetine; values taken from literature (footnotes d-h); cited from earlier work.
Data set [6] deals with serotonin transporter (UniProt P31652). It counts as binding. To be noted: read-out: IC50 5-HT [3H]Paroxetine; 0.2 nM [3H]paroxetine; mean ± standard error where given.
Data set [7] has the same target. To be noted: read-out: IC50 5-HT [3H]Paroxetine; 0.2 nM [3H]paroxetine; values taken from literature (footnotes d-h); cited from earlier work.
Data set [8] has as its system serotonin transporter. The data set is classed as binding. To be noted: for 5-HT/DA Ratio: ratio of IC50 values.
Data set [9] has as its system norepinephrine transporter. Nature of the data set: Inhibition of 0.5 nM [3H]nisoxetine binding to the norepinephrine transporter. The conditions noted are these: ratio of IC50 values.

dopamine transporter (Mus musculus, UniProt Q61327), sequence (Q61327 whole entry): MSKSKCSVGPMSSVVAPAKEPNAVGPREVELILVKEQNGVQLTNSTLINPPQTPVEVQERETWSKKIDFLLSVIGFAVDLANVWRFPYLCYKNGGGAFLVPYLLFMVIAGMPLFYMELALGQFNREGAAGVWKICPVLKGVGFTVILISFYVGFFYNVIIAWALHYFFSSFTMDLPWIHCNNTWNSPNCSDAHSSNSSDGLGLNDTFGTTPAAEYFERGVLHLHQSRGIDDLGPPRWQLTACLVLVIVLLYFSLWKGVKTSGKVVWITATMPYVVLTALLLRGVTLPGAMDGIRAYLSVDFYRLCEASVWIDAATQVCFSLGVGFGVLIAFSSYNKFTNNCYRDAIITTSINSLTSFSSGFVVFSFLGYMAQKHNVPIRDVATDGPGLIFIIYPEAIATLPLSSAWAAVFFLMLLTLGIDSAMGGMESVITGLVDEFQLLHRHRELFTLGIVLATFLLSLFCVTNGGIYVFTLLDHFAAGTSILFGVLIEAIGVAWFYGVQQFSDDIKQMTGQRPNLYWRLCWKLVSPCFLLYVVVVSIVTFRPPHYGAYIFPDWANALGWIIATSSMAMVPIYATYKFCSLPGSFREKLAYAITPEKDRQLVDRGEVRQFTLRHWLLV

As a reminder, the IC50 is the concentration at which inhibition is half-maximal. Consider `COC(=O)C1C(c2ccccc2)CC2CCC1N2C` (stereo not shown) [2e], for which the IC50 in [1] worked out at 101 ± 16 nM; in data set [2] it was 2080 nM.

For `[3H]C([3H])([3H])N1[C@H]2CC[C@@H]1[C@@H](C(=O)OC)[C@H](c1ccc(I)cc1)C2` [[^3H]RTI-352], the hypothalamus/cerebellum ratio in data set [3] (mouse brain, i.v. 1 μCi tracer, little enrichment at any time) came to 1.4. Moreover, in data set [3] (mouse, i.v. injection), the efflux from brain result is listed as “relatively rapid” and the penetration into brain entry is “very rapid”.

With `COC(=O)C1C(c2ccccc2)CC2CCC1N2C` (stereo not shown) [1e], the IC50 was 23 ± 5 nM in data set [4] and 920 ± 73 nM in [5].

As to `COC(=O)[C@@H]1[C@H]2CC[C@@H](C[C@H]1c1ccc(Cl)cc1)N2C` [2c, 3α-(4-Chlorophenyl)tropane-2β-carboxylic acid methyl ester tosylate], the IC50 in [6] was found to be 998 ± 120 nM; in data set [1], 2.4 ± 0.2 nM.

Consider `COC(=O)C1C(c2ccc(Cl)cc2)CC2CCC1N2C` (stereo not shown) [1c], for which the IC50 in data set [7] is 44.5 ± 1.3 nM.

In the case of `COC(=O)C1C(c2ccc(I)cc2)CC2CCC1N2C` (stereo not shown) [1b, reference compound], in data set [8], the “5-HT/DA Ratio” value is 3.3. Also, the IC50 in data set [7] was 4.21 ± 0.3 nM. For the same compound, the “NE/DA Ratio” value in data set [9] turned out to be 29.

`COC(=O)[C@@H]1[C@H]2CC[C@@H](C[C@H]1c1ccc(F)cc1)N2C` [2a, 3α-(4-Fluorophenyl)tropane-2β-carboxylic acid methyl ester]: the results for the IC50 in [6] and in data set [2] were 5060 nM and 1230 nM, respectively.

In the case of `COC(=O)[C@@H]1[C@H]2CC[C@@H](C[C@H]1c1ccc(I)cc1)N2C.Cc1ccc(S(=O)(=O)O)cc1` [2b, 3α-(4-Iodophenyl)tropane-2β-carboxylic acid methyl ester tosylate], in [8], the “5-HT/DA Ratio” value amounted to 23. For the same compound, the “times more selective for the DAT relative to the 5-HT transporter” value in [8] (relative to 1b (RTI-55)) is given as 7 times. Moreover, the IC50 was 64.9 ± 1.97 nM in [6], 2.85 ± 0.16 nM in [1] and 52.4 ± 4.9 nM in data set [2]. In addition, the “time at which striatal-to-cerebellar ratio peaked” value in data set [3] (mouse brain, i.v. tracer) is “about 30 min”. Also, the “time the peak striatal-to-cerebellar ratio was maintained thereafter” value in [3] (mouse brain, i.v. tracer) is reported as “about 20 min”. Further, the “NE/DA Ratio” value in data set [9] is reported as 18.

Turning to `COC(=O)[C@H]1[C@@H](c2ccc([125I])cc2)C[C@@H]2CC[C@H]1N2C` [[^125I]RTI-55, reference compound], the “approach to equilibrium of striatal to cerebellar ratios” value in [3] (mouse, parallel in vivo labeling experiments) was “steadily increasing at 120 min”.

As to `COC(=O)C1C(c2ccc(F)cc2)CC2CCC1N2C` (stereo not shown) [1a], the IC50 was 810 ± 59 nM in data set [7] and 835 ± 45 nM in [5].

Take `COC(=O)[C@@H]1[C@H]2CC[C@@H](C[C@H]1c1ccc(C)cc1)N2C` [2d, 3α-(4-Methylphenyl)tropane-2β-carboxylic acid methyl ester tosylate]: the 50% inhibitory concentration (IC50) in [1] is 10.2 ± 0.8 nM; in data set [2], 275 ± 24 nM.
